The source of these data is patent publication US8178688B2, “Benzamidine derivatives, process for the preparation thereof and pharmaceutical composition comprising the same” (Dong Wha Pharmaceutical Co., Ltd., priority 2004, dated 2012).

The subject of the first assay is osteoclast differentiation. Kind of assay: Inhibitory effects on osteoclast differentiation (co-culture of bone marrow cells with osteoblast, TRAP staining). It counts as cell-based, mice. The following applies: Mus musculus, Osteoclast, 168 h, read-out: % inhibitory activity on osteoclastogenesis. A digest of the protocol:
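Percent inhibition versus control is based on microscope counts of TRAP-positive osteoclasts (3 or more nuclei) after 7 days of compound exposure. Cultures paired ddY mouse marrow cells with ICR calvarial osteoblasts, driven by dexamethasone 10^−7M plus vitamin D3 10^−8M, with medium and compound changed every 2–3 days.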
As for `CN(CCN1CCOCC1)c1nc(-c2ccc(OCCCCCOc3ccc(C(=N)NO)cc3)cc2)c(C2CCCC2)s1` [Example 153, N-hydroxy-4-(5-[4-(5-cyclopentyl-2-[methyl-(2-morpholinoethyl)amino]-1,3-thiazol-4-yl)phenoxy]pentoxy)-benzamidine], the inhibition at 1 µM turned out to be 96.4%.

The same assay, now with this note: Mus musculus, Osteoclast, 168 h; 1 m; co-culture of bone marrow cells and osteoblast, 7 days, TRAP-positive osteoclasts versus controls; read-out: % inhibitory activity on osteoclastogenesis.
Consider `CCCNc1nc(-c2ccc(OCCCCCOc3ccc(C(=N)NO)cc3)cc2)c(C2CCCC2)s1` [Example 113, N-hydroxy-4-(5-[4-(5-cyclopentyl-2-propylamino-1,3-thiazol-4-yl)phenoxy]pentoxy)-benzamidine], for which the inhibition at 1 µM is 86.7%.

In the case of `CC(C)c1sc(NCc2cccnc2)nc1-c1ccc(OCCCCCOc2ccc(C(=N)NO)cc2)cc1` [Example 114, N-hydroxy-4-(5-[4-(5-isopropyl-2-[(pyridin-3-yl-methyl)amino]-1,3-thiazol-4-yl)phenoxy]pentoxy)-benzamidine], the inhibition at 1 µM was 50.9%.

Regarding `CNc1nc(-c2ccc(OCCCCCOc3ccc(C(=N)NO)cc3)cc2)cs1` [Example 116, N-hydroxy-4-(5-[4-(2-methylamino-1,3-thiazol-4-yl)phenoxy]pentoxy)-benzamidine], the inhibition at 1 µM stood at 51.3%.

`COCCN(CCOC)c1nc(-c2ccc(OCCCCCOc3ccc(C(=N)NO)cc3)cc2)c(C)s1` [Example 122, N-hydroxy-4-(5-[4-(2-(bis-(2-methoxyethyl)-amino)-5-methyl-1,3-thiazol-4-yl)phenoxy]pentoxy)-benzamidine]: the inhibition at 1 µM is 55.8%.

In the case of `Cc1sc(N(C)CCN2CCOCC2)nc1-c1ccc(OCCCCCOc2ccc(C(=N)NO)cc2)cc1` [Example 123, N-hydroxy-4-(5-[4-(5-methyl-2-(methyl-(2-morpholinoethyl)-amino)-1,3-thiazol-4-yl)phenoxy]pentoxy)-benzamidine], the inhibition at 1 µM came to 26.3%.

Consider `CCN(Cc1ccccc1)c1nc(-c2ccc(OCCCCCOc3ccc(C(=N)NO)cc3)cc2)c(C)s1` [Example 127, N-hydroxy-4-(5-[4-(2-(benzyl-ethyl-amino)-5-methyl-1,3-thiazol-4-yl)phenoxy]pentoxy)-benzamidine], for which the inhibition at 1 µM is 41.5%.

Take `Cc1sc(N(CCO)CCO)nc1-c1ccc(OCCCCCOc2ccc(C(=N)NO)cc2)cc1` [Example 128, N-hydroxy-4-(5-[4-(2-(bis-(2-hydroxyethyl)-amino)-5-methyl-1,3-thiazol-4-yl)phenoxy]pentoxy)-benzamidine]: the inhibition at 1 µM came to 75.5%.

As to `CCc1sc(N(C)CCN2CCOCC2)nc1-c1ccc(OCCCCCOc2ccc(C(=N)NO)cc2)cc1` [Example 131, N-hydroxy-4-(5-[4-(5-ethyl-2-(methyl-(2-morpholinoethyl)-amino)-1,3-thiazol-4-yl)phenoxy]pentoxy)-benzamidine], the inhibition at 1 µM stood at 69%.

On to `CCc1sc(N(CC)Cc2ccccc2)nc1-c1ccc(OCCCCCOc2ccc(C(=N)NO)cc2)cc1` [Example 135, N-hydroxy-4-(5-[4-(2-(benzyl-ethyl-amino)-5-ethyl-1,3-thiazol-4-yl)phenoxy]pentoxy)-benzamidine], for which the inhibition at 1 µM was determined as 48.6%.

Turning to `CC(C)c1sc(N(C)CCO)nc1-c1ccc(OCCCCCOc2ccc(C(=N)NO)cc2)cc1` [Example 140, N-hydroxy-4-(5-[4-(2-((2-hydroxyethyl)-methyl-amino)-5-isopropyl-1,3-thiazol-4-yl)phenoxy]pentoxy)-benzamidine], the inhibition at 1 µM was determined as 18.9%.

Regarding `CCS(=O)(=O)N(C)c1nc(-c2ccc(OCCCCCOc3ccc(C(=N)NO)cc3)cc2)c(C(C)C)s1` [Example 142, N-hydroxy-4-(5-[4-(2-(ethanesulfonyl-methyl-amino)-5-isopropyl-1,3-thiazol-4-yl)phenoxy]pentoxy)-benzamidine], the inhibition at 1 µM turned out to be 54.1%.

As for `CCCCc1sc(N(C)CCO)nc1-c1ccc(OCCCCCOc2ccc(C(=N)NO)cc2)cc1` [Example 143, N-hydroxy-4-(5-[4-(5-butyl-2-((2-hydroxyethyl)-methyl-amino)-1,3-thiazol-4-yl)phenoxy]pentoxy)-benzamidine], the inhibition at 1 µM was 69.5%.

Regarding `CCCCc1sc(N(C)CCN2CCOCC2)nc1-c1ccc(OCCCCCOc2ccc(C(=N)NO)cc2)cc1` [Example 144, N-hydroxy-4-(5-[4-(5-butyl-2-(methyl-(2-morpholinoethyl)amino)-1,3-thiazol-4-yl)phenoxy]pentoxy)-benzamidine], the inhibition at 1 µM stood at 94.4%.

Regarding `CN(CCN1CCOCC1)c1nc(-c2ccc(OCCCCCOc3ccc(C(=N)NO)cc3)cc2)c(CC2CCCC2)s1` [Example 148, N-hydroxy-4-(5-[4-(5-cyclopentylmethyl-2-(methyl-(2-morpholinoethyl)amino)-1,3-thiazol-4-yl)phenoxy]pentoxy)-benzamidine], the inhibition at 1 µM was 90.1%.

As for `CCCN(CCC)c1nc(-c2ccc(OCCCCCOc3ccc(C(=N)NO)cc3)cc2)c(CC2CCCC2)s1` [Example 149, N-hydroxy-4-(5-[4-(5-cyclopentylmethyl-2-dipropylamino-1,3-thiazol-4-yl)phenoxy]pentoxy)-benzamidine], the inhibition at 1 µM is 79.2%.

Regarding `CCCCc1sc(N(CC)CC)nc1-c1ccc(OCCCCCOc2ccc(C(=N)NO)cc2)cc1` [Example 150, N-hydroxy-4-(5-[4-(5-butyl-2-diethylamino-1,3-thiazol-4-yl)phenoxy]pentoxy)-benzamidine], the inhibition at 1 µM came out at 95.4%.

On to `CC(C)Cc1sc(N(C)CCN2CCOCC2)nc1-c1ccc(OCCCCCOc2ccc(C(=N)NO)cc2)cc1` [Example 154, N-hydroxy-4-(5-[4-(5-isobutyl-2-[methyl-(2-morpholinoethyl)amino]-1,3-thiazol-4-yl)phenoxy]pentoxy)-benzamidine], for which the inhibition at 1 µM was determined as 9.3%.

For `CCN(CC)c1nc(-c2ccc(OCCCCCOc3ccc(C(=N)NO)cc3)cc2)c(C2CCCC2)s1` [Example 156, N-hydroxy-4-(5-[4-(5-cyclopentyl-2-diethylamino-1,3-thiazol-4-yl)phenoxy]pentoxy)-benzamidine], the inhibition at 1 µM turned out to be 15.6%.

For `CCCN(CCC)c1nc(-c2ccc(OCCCCCOc3ccc(C(=N)NO)cc3)cc2)c(C(C)C)s1` [Example 157, N-hydroxy-4-(5-[4-(5-isopropyl-2-dipropylamino-1,3-thiazol-4-yl)phenoxy]pentoxy)-benzamidine], the inhibition at 1 µM came out at 92.3%.

Consider `CCN(CC)c1nc(-c2ccc(OCCCCCOc3ccc(C(=N)NO)cc3)cc2)c(CC2CCCC2)s1` [Example 160, N-hydroxy-4-(5-[4-(5-cyclopentylmethyl-2-diethylamino-1,3-thiazol-4-yl)phenoxy]pentoxy)-benzamidine], for which the inhibition at 1 µM worked out at 83.7%.

In the case of `CC(C)c1sc(N(C)C)nc1-c1ccc(OCCCCCOc2ccc(C(=N)NO)cc2)cc1` [Example 161, N-hydroxy-4-(5-[4-(5-isopropyl-2-dimethylamino-1,3-thiazol-4-yl)phenoxy]pentoxy)-benzamidine], the inhibition at 1 µM is 89.1%.

In the case of `CCN(CC)c1nc(-c2ccc(OCCCCCOc3ccc(C(=N)NO)cc3)cc2)c(C(C)C)s1` [Example 162, N-hydroxy-4-(5-[4-(5-isopropyl-2-diethylamino-1,3-thiazol-4-yl)phenoxy]pentoxy)-benzamidine], the inhibition at 1 µM is 87.4%.

As for `CN(C)c1nc(-c2ccc(OCCCCCOc3ccc(C(=N)NO)cc3)cc2)c(CC2CCCC2)s1` [Example 163, N-hydroxy-4-(5-[4-(5-cyclopentylmethyl-2-dimethylamino-1,3-thiazol-4-yl)phenoxy]pentoxy)-benzamidine], the inhibition at 1 µM came to 88.1%.

For the compound `CN1CCN(c2nc(-c3ccc(OCCCCCOc4ccc(C(=N)NO)cc4)cc3)c(CC3CCCC3)s2)CC1` [Example 170, N-hydroxy-4-(5-(4-[5-cyclopentylmethyl-2-(4-methylpiperazino)-1,3-thiazol-4-yl]phenoxy)-pentoxy)-benzamidine], the inhibition at 1 µM came out at 93.9%.

For `C=Cc1sc(N2CCOCC2)nc1-c1ccc(OCCCCCOc2ccc(C(=N)NO)cc2)cc1` [Example 171, N-hydroxy-4-(5-[4-(5-vinyl-2-morpholin-4-yl-1,3-thiazol-4-yl)phenoxy]pentoxy)-benzamidine], the inhibition at 1 µM came to 96.2%.

Consider `N=C(NO)c1ccc(OCCCCCOc2ccc(-c3nc(N4CCOCC4)sc3C3CCCC3)cc2)cc1` [Example 172, N-hydroxy-4-(5-[4-(5-cyclopentyl-2-morpholin-4-yl-1,3-thiazol-4-yl)phenoxy]pentoxy)-benzamidine], for which the inhibition at 1 µM is 87.8%.

With `CC(C)Cc1sc(N2CCOCC2)nc1-c1ccc(OCCCCCOc2ccc(C(=N)NO)cc2)cc1` [Example 173, N-hydroxy-4-[5-[4-(5-isobutyl-2-morpholin-4-yl-1,3-thiazol-4-yl)phenoxy]pentoxy)-benzamidine], the inhibition at 1 µM was determined as 9%.

For the compound `N=C(NO)c1ccc(OCCCCCOc2ccc(-c3csc(N4CCOCC4)n3)cc2)cc1` [Example 175, N-hydroxy-4-(5-[4-(2-morpholin-4-yl-1,3-thiazol-4-yl)phenoxy]pentoxy)-benzamidine], the inhibition at 1 µM is 61.9%.

Take `Cc1nc(-c2ccc(OCCOCCOc3ccc(C(=N)NO)cc3)cc2)c(C(C)C)s1` [Example 178, N-hydroxy-4-(2-[2-(4-(5-isopropyl-2-methyl-1,3-thiazol-4-yl)phenoxy)-ethoxy]-ethoxy)-benzamidine]: the inhibition at 1 µM was determined as 36.8%.

The assay is the same for the next values; noted with them: co-culture of bone marrow cells and osteoblast, 7 days, TRAP-positive osteoclasts versus controls.
Consider `CCc1sc(NCc2cccnc2)nc1-c1ccc(OCCCCCOc2ccc(C(=N)NO)cc2)cc1` [Example 117], for which the “% inhibitory activity on osteoclastogenesis” value (“% inhibitory activity” below) was found to be 2.7%.

`CCc1sc(N(Cc2cccnc2)Cc2cccnc2)nc1-c1ccc(OCCCCCOc2ccc(C(=N)NO)cc2)cc1` [Example 137]: the “% inhibitory activity” value was determined as 62.7%.

On to `Cc1sc(N2CCCCC2)nc1-c1ccc(OCCCCCOc2ccc(C(=N)NO)cc2)cc1` [Example 164, N-hydroxy-4-(5-[4-(5-methyl-2-piperdino-1,3-thiazol-4-yl)phenoxy]pentoxy)-benzamidine], for which the “% inhibitory activity” value is given as 67.4%.
